Source: patent publication US20240199546A1, “INHIBITORS OF SOLUTE CARRIER FAMILY 6A MEMBER 19 (SLC6A19) AND METHODS OF USE THEREOF” (Maze Therapeutics, Inc., priority 2022, published 2024)

Target: T1, human SLC6A19 and TMEM27 (Homo sapiens, UniProt Q695T7)
T1 construct: expressed in transfected cells
T1 sequence (Q695T7 1-634): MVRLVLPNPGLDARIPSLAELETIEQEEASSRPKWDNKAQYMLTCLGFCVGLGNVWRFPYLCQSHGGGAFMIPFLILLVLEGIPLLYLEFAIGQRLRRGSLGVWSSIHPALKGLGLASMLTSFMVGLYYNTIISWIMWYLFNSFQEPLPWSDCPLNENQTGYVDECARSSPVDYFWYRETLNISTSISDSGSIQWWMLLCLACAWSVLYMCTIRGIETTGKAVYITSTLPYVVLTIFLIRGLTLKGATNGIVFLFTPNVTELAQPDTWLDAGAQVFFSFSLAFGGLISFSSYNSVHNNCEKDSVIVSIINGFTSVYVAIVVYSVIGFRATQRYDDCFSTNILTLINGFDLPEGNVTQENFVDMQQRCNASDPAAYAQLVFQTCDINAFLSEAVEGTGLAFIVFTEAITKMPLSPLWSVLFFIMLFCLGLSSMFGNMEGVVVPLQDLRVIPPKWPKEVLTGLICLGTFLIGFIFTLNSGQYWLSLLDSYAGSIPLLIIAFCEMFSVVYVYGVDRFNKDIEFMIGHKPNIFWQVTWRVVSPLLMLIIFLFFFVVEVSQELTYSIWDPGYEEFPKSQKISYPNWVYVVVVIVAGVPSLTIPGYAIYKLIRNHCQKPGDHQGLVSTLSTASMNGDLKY
T1 sequence (Q9HBJ8 15-222 partner): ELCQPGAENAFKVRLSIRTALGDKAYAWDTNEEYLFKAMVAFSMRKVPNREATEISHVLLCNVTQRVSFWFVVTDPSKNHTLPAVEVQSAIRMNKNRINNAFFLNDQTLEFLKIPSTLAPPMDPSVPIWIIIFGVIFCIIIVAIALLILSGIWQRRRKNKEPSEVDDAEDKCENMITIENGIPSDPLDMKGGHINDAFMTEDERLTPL
Assay: Radiolabelled (3H) leucine uptake in CHO cells with doxycycline-inducible expression of human SLC6A19 and TMEM27 (Example B-1)
Format: cell-based
Settings: CHO cells with doxycycline-inducible expression of human SLC6A19 and TMEM27, read-out: SLC6A19_Radioligand Uptake Assay IC50
Method in brief: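 CHO cells were induced with doxycycline for 18 h at 37 °C, washed in HBSS, then exposed to compounds for 1 h: 8-point, 3-fold dilutions in duplicate, 0.5% DMSO final. Uptake measured by scintillation counting after 2 h shaking. Activity normalized with positive control as 0% and DMSO as 100%.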

| SMILES | IC50 [nM] |
| --- | --- |
| CC1(C(=O)NCc2cc3cc(CCC#N)c(OCc4ccon4)cc3[nH]2)CC1 [Compound 642, N-((5-(2-cyanoethyl)-6-(isoxazol-3-ylmethoxy)-1H-indol-2-yl)methyl)-1-methylcyclopropane-1-carboxamide] | 2740 |
| CC1(C(=O)NCc2cc3cc(CC#N)c(OCc4cscn4)cc3[nH]2)CC1 [Compound 643, N-((5-(cyanomethyl)-6-(thiazol-4-ylmethoxy)-1H-indol-2-yl)methyl)-1-methylcyclopropane-1-carboxamide] | 631 |
| CC1(C(=O)NCc2cc3cc(CC#N)c(OCc4ccon4)cc3[nH]2)CC1 [Compound 644, N-((5-(cyanomethyl)-6-(isoxazol-3-ylmethoxy)-1H-indol-2-yl)methyl)-1-methylcyclopropane-1-carboxamide] | 583 |
| CC1(C(=O)NCc2cc3cc(C(F)F)c(OCc4ccon4)cc3[nH]2)CC1 [Compound 646, N-((5-(difluoromethyl)-6-(isoxazol-3-ylmethoxy)-1H-indol-2-yl)methyl)-1-methylcyclopropane-1-carboxamide] | 539 |
| Cc1cc(COc2cc3[nH]c(CNC(=O)C4(C)CC4)cc3cc2C(F)F)no1 [Compound 647, N-((5-(difluoromethyl)-6-((5-methylisoxazol-3-yl)methoxy)-1H-indol-2-yl)methyl)-1-methylcyclopropane-1-carboxamide] | 680 |
| CC(=O)NCc1cc2cc(Cl)c(OCCOCC(F)F)cc2[nH]1 [Compound 650, N-((5-chloro-6-(2-(2,2-difluoroethoxy)ethoxy)-1H-indol-2-yl)methyl)acetamide] | 1010 |
| O=C(NCc1cc2cc(C3CC3)c(OCc3cscn3)cc2[nH]1)N1CCC1 [Compound 651, N-((5-cyclopropyl-6-(thiazol-4-ylmethoxy)-1H-indol-2-yl)methyl)azetidine-1-carboxamide] | 340 |
| O=C(NCc1cc2cc(C3CC3)c(OCc3cscn3)cc2[nH]1)N1CCCC1 [Compound 652, N-((5-cyclopropyl-6-(thiazol-4-ylmethoxy)-1H-indol-2-yl)methyl)pyrrolidine-1-carboxamide] | 365 |
| O=C(NCc1cc2cc(C3CC3)c(OCc3ccon3)cc2[nH]1)N1CCC1 [Compound 653, N-((5-cyclopropyl-6-(isoxazol-3-ylmethoxy)-1H-indol-2-yl)methyl)azetidine-1-carboxamide] | 387 |
| O=C(NCc1cc2cc(C3CC3)c(OCc3ccon3)cc2[nH]1)N1CCCC1 [Compound 654, N-((5-cyclopropyl-6-(isoxazol-3-ylmethoxy)-1H-indol-2-yl)methyl)pyrrolidine-1-carboxamide] | 537 |
| CC1(C(=O)NCc2cc3cc(C4(F)CC4)c(OCc4ccon4)cc3[nH]2)CC1 [Compound 655, N-((5-(1-fluorocyclopropyl)-6-(isoxazol-3-ylmethoxy)-1H-indol-2-yl)methyl)-1-methylcyclopropane-1-carboxamide] | > 7300 |
| CC1(C(=O)NCc2cc3cc(C4(F)CC4)c(OCc4cscn4)cc3[nH]2)CC1 [Compound 656, N-((5-(1-fluorocyclopropyl)-6-(thiazol-4-ylmethoxy)-1H-indol-2-yl)methyl)-1-methylcyclopropane-1-carboxamide] | 8470 |
| CC1(C(=O)NCc2cc3cc(C4CC4(F)F)c(OCc4cscn4)cc3[nH]2)CC1 (centres unmarked) [Compound 657, N-((5-(2,2-difluorocyclopropyl)-6-(thiazol-4-ylmethoxy)-1H-indol-2-yl)methyl)-1-methylcyclopropane-1-carboxamide] | 654 |
| CC1(C(=O)NCc2cc3cc(-c4ccon4)c(OCc4cscn4)cc3[nH]2)CC1 [Compound 659, N-((5-(isoxazol-3-yl)-6-(thiazol-4-ylmethoxy)-1H-indol-2-yl)methyl)-1-methylcyclopropane-1-carboxamide] | 1970 |
| CC1(C(=O)NCc2cc3cc(-c4ccno4)c(OCc4cscn4)cc3[nH]2)CC1 [Compound 660, N-((5-(isoxazol-5-yl)-6-(thiazol-4-ylmethoxy)-1H-indol-2-yl)methyl)-1-methylcyclopropane-1-carboxamide] | 1580 |
| CC1(C(=O)NCc2cc3cc(-c4cnco4)c(OCc4cscn4)cc3[nH]2)CC1 [Compound 661, 1-methyl-N-((5-(oxazol-5-yl)-6-(thiazol-4-ylmethoxy)-1H-indol-2-yl)methyl)cyclopropane-1-carboxamide] | 1000 |
| Cc1cc(COc2cc3[nH]c(CNC(=O)C(F)(F)F)cc3cc2Cl)on1 [Compound 662, N-((5-chloro-6-((3-methylisoxazol-5-yl)methoxy)-1H-indol-2-yl)methyl)-2,2,2-trifluoroacetamide] | 123 |
| [2H]C([2H])([2H])c1cc(COc2cc3[nH]c(CNC(=O)C4(C)CC4)cc3cc2Cl)no1 [Compound 663, N-((5-chloro-6-((5-(methyl-d3)isoxazol-3-yl)methoxy)-1H-indol-2-yl)methyl)-1-methylcyclopropane-1-carboxamide] | 134 |
| [2H]C([2H])([2H])c1cc(COc2cc3[nH]c(CNC(=O)C4(C)CC4)cc3cc2F)no1 [Compound 664, N-((5-fluoro-6-((5-(methyl-d3)isoxazol-3-yl)methoxy)-1H-indol-2-yl)methyl)-1-methylcyclopropane-1-carboxamide] | 187 |
| Cc1cc(COc2cc3[nH]c(CNC(=O)[C@@H]4C[C@@H](F)CN4)cc3cc2Cl)on1 [Compound 665, (2S,4R)—N-((5-chloro-6-((3-methylisoxazol-5-yl)methoxy)-1H-indol-2-yl)methyl)-4-fluoropyrrolidine-2-carboxamide] | 1560 |
| Cc1cc(COc2cc3[nH]c(CNC(=O)[C@@H]4CC(F)(F)CN4)cc3cc2Cl)on1 [Compound 666, (S)-N-((5-chloro-6-((3-methylisoxazol-5-yl)methoxy)-1H-indol-2-yl)methyl)-4,4-difluoropyrrolidine-2-carboxamide] | 2990 |
| Cc1cc(COc2cc3[nH]c(CNC(=O)[C@@H]4C[C@@H](F)CN4C)cc3cc2Cl)on1 [Compound 667, (2S,4R)—N-((5-chloro-6-((3-methylisoxazol-5-yl)methoxy)-1H-indol-2-yl)methyl)-4-fluoro-1-methylpyrrolidine-2-carboxamide] | 524 |
| Cc1cc(COc2cc3[nH]c(CNC(=O)[C@@H]4CC(F)(F)CN4C)cc3cc2Cl)on1 [Compound 668, (S)-N-((5-chloro-6-((3-methylisoxazol-5-yl)methoxy)-1H-indol-2-yl)methyl)-4,4-difluoro-1-methylpyrrolidine-2-carboxamide] | 1150 |
